{"source": "paper PMC5218480", "about": "(PLoS ONE, 2017)", "system": "MV-4-11 cells", "assay": "Gene expression microarray analysis (Affymetrix PrimeView) and GSEA", "format": "cell-based, human", "set-up": "RFU PODN (11730768_x_at) / Fold change /veh PODN (11730768_x_at) / RFU LINC00158 (11744669_a_at) / Fold change /veh LINC00158 (11744669_a_at) / RFU DUSP10 (11751237_a_at) / Fold change /veh DUSP10 (11751237_a_at) / RFU ID3 (11757404_x_at) / Fold change /veh ID3 (11757404_x_at) / RFU PLEKHG5 (11737974_s_at) / Fold change /veh PLEKHG5 (11737974_s_at) / RFU LRRC4B (11730491_at) / Fold change /veh LRRC4B (11730491_at) / RFU GIMAP4 (11747438_a_at) / Fold change /veh GIMAP4 (11747438_a_at) / RFU KRT8 (11758183_x_at) / Fold change /veh KRT8 (11758183_x_at) / RFU CNN1 (11734310_a_at) / Fold change /veh CNN1 (11734310_a_at) / RFU VPS37D (11726825_at) / Fold change /veh VPS37D (11726825_at) / RFU C10orf10 (11716522_x_at) / Fold change /veh C10orf10 (11716522_x_at) / RFU KIR2DL2 /// KIR2DL4 /// KIR2DL5A /// KIR2DL5B /// KIR2DS1 /// KIR2DS2 /// KIR2DS3 /// KIR2DS4 /// KIR3DL3 /// KIR3DL3 /// KIR3DS1 (11738374_at) / Fold change /veh KIR2DL2 /// KIR2DL4 /// KIR2DL5A /// KIR2DL5B /// KIR2DS1 /// KIR2DS2 /// KIR2DS3 /// KIR2DS4 /// KIR3DL3 /// KIR3DL3 /// KIR3DS1 (11738374_at) / RFU C1QL1 (11718748_at) / Fold change /veh C1QL1 (11718748_at) / RFU TMPRSS4 (11747572_a_at) / Fold change /veh TMPRSS4 (11747572_a_at) / RFU HAMP (11756126_x_at) / Fold change /veh HAMP (11756126_x_at) / RFU RNFT2 (11725882_a_at) / Fold change /veh RNFT2 (11725882_a_at) / RFU NR4A2 (11747474_a_at) / Fold change /veh NR4A2 (11747474_a_at) / RFU ABCC12 (11746883_a_at) / Fold change /veh ABCC12 (11746883_a_at) / RFU TMEM136 (11760407_x_at) / Fold change /veh TMEM136 (11760407_x_at) / RFU CLDN22 /// WWC2 (11732394_at) / Fold change /veh CLDN22 /// WWC2 (11732394_at) / RFU HLA-DPB1 (11760878_x_at) / Fold change /veh HLA-DPB1 (11760878_x_at) / RFU SPINT1 (11716480_a_at) / Fold change /veh SPINT1 (11716480_a_at) / RFU GAP43 (11754022_s_at) / Fold change /veh GAP43 (11754022_s_at) / RFU A4GNT (11735810_at) / Fold change /veh A4GNT (11735810_at) / RFU PRB3 (11715151_x_at) / Fold change /veh PRB3 (11715151_x_at) / RFU TUBB4B (11761932_at) / Fold change /veh TUBB4B (11761932_at) / RFU CAPN14 (11732068_a_at) / Fold change /veh CAPN14 (11732068_a_at) / RFU TMCC2 (11721928_a_at) / Fold change /veh TMCC2 (11721928_a_at) / RFU IRGQ (11745062_a_at) / Fold change /veh IRGQ (11745062_a_at) / RFU FAM174B (11720279_a_at) / Fold change /veh FAM174B (11720279_a_at) / RFU TMPRSS4 (11748680_a_at) / Fold change /veh TMPRSS4 (11748680_a_at) / RFU FAM212B (11763350_a_at) / Fold change /veh FAM212B (11763350_a_at) / RFU PLEKHG5 (11743358_a_at) / Fold change /veh PLEKHG5 (11743358_a_at) / RFU ZSCAN30 (11745921_a_at) / Fold change /veh ZSCAN30 (11745921_a_at) / RFU CMKLR1 (11741424_a_at) / Fold change /veh CMKLR1 (11741424_a_at) / RFU LOC101060620 /// MAPK8IP1 (11723275_at) / Fold change /veh LOC101060620 /// MAPK8IP1 (11723275_at) / RFU SPTSSB (11747773_x_at) / Fold change /veh SPTSSB (11747773_x_at) / RFU PRSS12 (11739890_at) / Fold change /veh PRSS12 (11739890_at) / RFU BIN1 (11741810_x_at) / Fold change /veh BIN1 (11741810_x_at) / RFU WNT11 (11732464_a_at) / Fold change /veh WNT11 (11732464_a_at) / RFU C10orf10 (11716521_a_at) / Fold change /veh C10orf10 (11716521_a_at) / RFU C5orf56 (11738089_at) / Fold change /veh C5orf56 (11738089_at) / RFU CYB561 (11721691_x_at) / Fold change /veh CYB561 (11721691_x_at) / RFU ANKRD19P (11752326_a_at) / Fold change /veh ANKRD19P (11752326_a_at) / RFU OR2T12 /// OR2T33 /// OR2T8 (11738714_s_at) / Fold change /veh OR2T12 /// OR2T33 /// OR2T8 (11738714_s_at) / RFU VCAN (11748164_a_at) / Fold change /veh VCAN (11748164_a_at) / RFU JSRP1 (11732532_at) / Fold change /veh JSRP1 (11732532_at) / RFU KRTAP10-11 (11738290_x_at) / Fold change /veh KRTAP10-11 (11738290_x_at) / RFU MYO3A (11730013_a_at) / Fold change /veh MYO3A (11730013_a_at) / RFU EBF3 (11725865_a_at) / Fold change /veh EBF3 (11725865_a_at) / RFU CAMK2N1 (11719241_x_at) / Fold change /veh CAMK2N1 (11719241_x_at) / RFU C5orf56 (11738088_a_at) / Fold change /veh C5orf56 (11738088_a_at) / RFU OLFML3 (11715873_a_at) / Fold change /veh OLFML3 (11715873_a_at) / RFU LOC100653217 /// NTM (11731650_a_at) / Fold change /veh LOC100653217 /// NTM (11731650_a_at) / RFU MAPK11 (11762145_a_at) / Fold change /veh MAPK11 (11762145_a_at) / RFU FIZ1 (11724087_x_at) / Fold change /veh FIZ1 (11724087_x_at) / RFU OASL (11726364_x_at) / Fold change /veh OASL (11726364_x_at) / RFU SOX15 (11748057_x_at) / Fold change /veh SOX15 (11748057_x_at) / RFU CD79A (11719716_a_at) / Fold change /veh CD79A (11719716_a_at) / RFU HIST1H1D (11736915_at) / Fold change /veh HIST1H1D (11736915_at) / RFU CASKIN2 (11723855_a_at) / Fold change /veh CASKIN2 (11723855_a_at) / RFU LOC730098 (11760151_x_at) / Fold change /veh LOC730098 (11760151_x_at) / RFU OR4N2 (11742367_at) / Fold change /veh OR4N2 (11742367_at) / RFU PRRT2 (11749266_a_at) / Fold change /veh PRRT2 (11749266_a_at) / RFU SNX32 (11753110_a_at) / Fold change /veh SNX32 (11753110_a_at) / RFU CDHR5 (11726645_a_at) / Fold change /veh CDHR5 (11726645_a_at) / RFU RCAN1 (11760418_a_at) / Fold change /veh RCAN1 (11760418_a_at) / RFU FAM167A (11723789_a_at) / Fold change /veh FAM167A (11723789_a_at) / RFU FAM26E (11764081_at) / Fold change /veh FAM26E (11764081_at) / RFU ISYNA1 (11749810_s_at) / Fold change /veh ISYNA1 (11749810_s_at) / RFU ACY1 (11761880_at) / Fold change /veh ACY1 (11761880_at) / RFU 11764098_at / Fold change /veh 11764098_at / RFU SAMD14 (11745864_x_at) / Fold change /veh SAMD14 (11745864_x_at) / RFU NPB (11741838_a_at) / Fold change /veh NPB (11741838_a_at) / RFU TMPRSS6 (11731388_a_at) / Fold change /veh TMPRSS6 (11731388_a_at) / RFU KRTAP10-2 (11738614_at) / Fold change /veh KRTAP10-2 (11738614_at) / RFU ARHGAP8 /// PRR5-ARHGAP8 (11727945_x_at) / Fold change /veh ARHGAP8 /// PRR5-ARHGAP8 (11727945_x_at) / RFU KRTAP5-7 /// NADSYN1 (11734609_at) / Fold change /veh KRTAP5-7 /// NADSYN1 (11734609_at) / RFU RASL12 (11751679_a_at) / Fold change /veh RASL12 (11751679_a_at) / RFU CDKN2B (11736163_a_at) / Fold change /veh CDKN2B (11736163_a_at) / RFU PRF1 (11729649_at) / Fold change /veh PRF1 (11729649_at) / RFU, ZNF638 /// ZNF638-IT1 / Fold change vs veh, ZNF638 /// ZNF638-IT1 / RFU, PANK3 / Fold change vs veh, PANK3 / RFU, SH3YL1 / Fold change vs veh, SH3YL1 / RFU, ZEB2 / Fold change vs veh, ZEB2 / RFU, NRIP1 / Fold change vs veh, NRIP1 / RFU, PTTG1IP / Fold change vs veh, PTTG1IP / RFU, CAPN2 / Fold change vs veh, CAPN2 / RFU, MED14 / Fold change vs veh, MED14 / RFU, SNORA58 / Fold change vs veh, SNORA58 / RFU, C1orf63 / Fold change vs veh, C1orf63 / RFU, LRRFIP1 / Fold change vs veh, LRRFIP1 / RFU, NDUFAF7 / Fold change vs veh, NDUFAF7 / RFU, SLC12A2 / Fold change vs veh, SLC12A2 / RFU, IBTK / Fold change vs veh, IBTK / RFU, ESF1 / Fold change vs veh, ESF1 / Fold change vs veh, TMEM50B / RFU, TAOK1 / Fold change vs veh, TAOK1 / RFU, ACBD3 / Fold change vs veh, ACBD3 / RFU, TMA16 / Fold change vs veh, TMA16 / RFU, RWDD3 / Fold change vs veh, RWDD3 / RFU, BCAT1 / Fold change vs veh, BCAT1 / RFU, EDEM3 / Fold change vs veh, EDEM3 / RFU, TMEM33 / Fold change vs veh, TMEM33 / RFU, WDR75 / Fold change vs veh, WDR75 / RFU, AHCTF1 / Fold change vs veh, AHCTF1 / RFU, TFRC / Fold change vs veh, TFRC / RFU, ZDHHC17 / Fold change vs veh, ZDHHC17 / RFU, NOM1 / Fold change vs veh, NOM1 / RFU, ARL8B / Fold change vs veh, ARL8B / RFU, ZBTB11 / Fold change vs veh, ZBTB11 / RFU, TAMM41 / Fold change vs veh, TAMM41 / RFU, KIAA1704 /// LOC100996395 / Fold change vs veh, KIAA1704 /// LOC100996395 / RFU, ING1 / Fold change vs veh, ING1 / RFU, TRMT61B / Fold change vs veh, TRMT61B / RFU, FUBP3 / Fold change vs veh, FUBP3 / RFU, TP53 / Fold change vs veh, TP53 / RFU, TNKS2 / Fold change vs veh, TNKS2 / RFU, ZFP14 / Fold change vs veh, ZFP14 / RFU, ACTR2 / Fold change vs veh, ACTR2 / RFU, PPP3R1 / Fold change vs veh, PPP3R1 / RFU, PIK3R1 / Fold change vs veh, PIK3R1 / RFU, HNRNPA1 / Fold change vs veh, HNRNPA1 / RFU, RNF170 / Fold change vs veh, RNF170 / RFU, ZNF28 / Fold change vs veh, ZNF28 / RFU, RNGTT / Fold change vs veh, RNGTT / RFU, OGT / Fold change vs veh, OGT / RFU, BRD1 / Fold change vs veh, BRD1 / RFU, MARS / Fold change vs veh, MARS / RFU, ZNF655 / Fold change vs veh, ZNF655 / RFU, FAHD1 / Fold change vs veh, FAHD1 / RFU, BDP1 / Fold change vs veh, BDP1 / RFU, LRRCC1 / Fold change vs veh, LRRCC1 / RFU, ARID1A / Fold change vs veh, ARID1A / RFU, ZNF146 / Fold change vs veh, ZNF146 / RFU, ZNF330 / Fold change vs veh, ZNF330 / RFU, GPN3 / Fold change vs veh, GPN3 / RFU, C9orf123 / Fold change vs veh, C9orf123 / RFU, N4BP2L2 / Fold change vs veh, N4BP2L2 / RFU, ARFIP1 / Fold change vs veh, ARFIP1 / RFU, FAM179B / Fold change vs veh, FAM179B / RFU, BCL10 / Fold change vs veh, BCL10 / RFU, UHRF1BP1L / Fold change vs veh, UHRF1BP1L / RFU, BET1 / Fold change vs veh, BET1 / RFU, CNOT2 / Fold change vs veh, CNOT2 / RFU, ZNF268 / Fold change vs veh, ZNF268 / Fold change vs veh, ZNF507 / RFU, DGCR2 / Fold change vs veh, DGCR2 / RFU, WDSUB1 / Fold change vs veh, WDSUB1 / Fold change vs veh, HSP90B1 /// MIR3652 / RFU, ADSS / Fold change vs veh, ADSS / RFU, GK / Fold change vs veh, GK / RFU, ZNF148 / Fold change vs veh, ZNF148 / RFU, TAF9 / Fold change vs veh, TAF9 / RFU, SLC1A5 / Fold change vs veh, SLC1A5 / RFU, SLMO2 / Fold change vs veh, SLMO2 / RFU, ABCC4 / Fold change vs veh, ABCC4 / RFU, LOC101060439 /// RAP1B / Fold change vs veh, LOC101060439 /// RAP1B / RFU, RFX7 / Fold change vs veh, RFX7 / RFU, GTPBP10 / Fold change vs veh, GTPBP10 / RFU, CNEP1R1 / Fold change vs veh, CNEP1R1 / RFU, BIVM-ERCC5 /// ERCC5 / Fold change vs veh, BIVM-ERCC5 /// ERCC5 / RFU, ILF3 / Fold change vs veh, ILF3 / RFU 11762660_at / Fold change /veh 11762660_at / RFU VCAN (11757783_s_at) / Fold change /veh VCAN (11757783_s_at) / RFU DDX43 (11728927_at) / Fold change /veh DDX43 (11728927_at) / RFU KRT8 (11758188_x_at) / Fold change /veh KRT8 (11758188_x_at) / RFU NKD1 (11759106_at) / Fold change /veh NKD1 (11759106_at) / RFU SRD5A1 (11742802_a_at) / Fold change /veh SRD5A1 (11742802_a_at) / RFU TPSAB1 /// TPSB2 (11721975_s_at) / Fold change /veh TPSAB1 /// TPSB2 (11721975_s_at) / RFU GSTM3 (11746129_a_at) / Fold change /veh GSTM3 (11746129_a_at) / RFU IL23R (11737362_x_at) / Fold change /veh IL23R (11737362_x_at) / RFU TMEM51 (11727254_a_at) / Fold change /veh TMEM51 (11727254_a_at) / RFU PIWIL2 (11732686_x_at) / Fold change /veh PIWIL2 (11732686_x_at) / RFU ORM1 (11744905_x_at) / Fold change /veh ORM1 (11744905_x_at) / RFU CCDC152 (11743942_at) / Fold change /veh CCDC152 (11743942_at) / RFU ECM1 (11717891_a_at) / Fold change /veh ECM1 (11717891_a_at) / RFU IL23R (11748794_a_at) / Fold change /veh IL23R (11748794_a_at) / RFU TNFAIP8L3 (11732012_x_at) / Fold change /veh TNFAIP8L3 (11732012_x_at) / RFU MBOAT4 (11741988_at) / Fold change /veh MBOAT4 (11741988_at) / RFU 11764193_at / Fold change /veh 11764193_at / RFU TMEM53 (11763286_at) / Fold change /veh TMEM53 (11763286_at) / RFU MAGEB2 (11727129_at) / Fold change /veh MAGEB2 (11727129_at) / RFU TMEM200A (11744735_a_at) / Fold change /veh TMEM200A (11744735_a_at) / RFU CCDC152 (11751479_a_at) / Fold change /veh CCDC152 (11751479_a_at) / RFU FAM211A (11726209_a_at) / Fold change /veh FAM211A (11726209_a_at) / RFU RGS16 (11746705_a_at) / Fold change /veh RGS16 (11746705_a_at) / RFU VCAN (11755009_s_at) / Fold change /veh VCAN (11755009_s_at) / RFU RHOB (11743442_s_at) / Fold change /veh RHOB (11743442_s_at) / RFU RGS16 (11720943_a_at) / Fold change /veh RGS16 (11720943_a_at) / RFU RGS16 (11720944_at) / Fold change /veh RGS16 (11720944_at) / RFU, VPS4B / Fold change vs veh, VPS4B / RFU, CREB1 / Fold change vs veh, CREB1 / RFU, DNAJC13 / Fold change vs veh, DNAJC13 / RFU, GNAQ / Fold change vs veh, GNAQ / RFU, CDK5R1 / Fold change vs veh, CDK5R1 / RFU, ZRANB3 / Fold change vs veh, ZRANB3 / RFU, CUL4A / Fold change vs veh, CUL4A / RFU, CCNY / Fold change vs veh, CCNY / RFU, UFL1 / Fold change vs veh, UFL1 / RFU, COG3 / Fold change vs veh, COG3 / RFU, DIAPH2 / Fold change vs veh, DIAPH2 / RFU, SKA2 / Fold change vs veh, SKA2 / RFU, AFF3 / Fold change vs veh, AFF3 / RFU, LMF1 / Fold change vs veh, LMF1 / RFU, IPO11 / Fold change vs veh, IPO11 / RFU, DFFB / Fold change vs veh, DFFB / RFU, FOXP1 / Fold change vs veh, FOXP1 / RFU, CARD8 / Fold change vs veh, CARD8 / RFU, STRN3 / Fold change vs veh, STRN3 / RFU, ADK / Fold change vs veh, ADK / RFU, RASSF2 / Fold change vs veh, RASSF2 / RFU, WIPF1 / Fold change vs veh, WIPF1 / RFU, LARP1B / Fold change vs veh, LARP1B / RFU, RASA1 / Fold change vs veh, RASA1 / RFU, RB1 / Fold change vs veh, RB1 / RFU, PPFIA1 / Fold change vs veh, PPFIA1 / RFU, MAT2A / Fold change vs veh, MAT2A / RFU, CCT5 / Fold change vs veh, CCT5 / RFU, WDR92 / Fold change vs veh, WDR92 / RFU, CUX1 / Fold change vs veh, CUX1 / RFU, TTC7A / Fold change vs veh, TTC7A / RFU, TMEM135 / Fold change vs veh, TMEM135 / RFU, DEPTOR / Fold change vs veh, DEPTOR / RFU, CPM / Fold change vs veh, CPM / RFU, DNAJB6 / Fold change vs veh, DNAJB6 / RFU, CACNA2D3 / Fold change vs veh, CACNA2D3 / RFU, DTX4 / Fold change vs veh, DTX4 / RFU, TFCP2 / Fold change vs veh, TFCP2 / RFU, GMCL1 /// GMCL1P1 / Fold change vs veh, GMCL1 /// GMCL1P1 / RFU, AEBP2 / Fold change vs veh, AEBP2 / RFU, SNHG1 /// SNORD22 /// SNORD25 /// SNORD26 /// SNORD27 /// SNORD28 /// SNORD29 /// SNORD31 / Fold change vs veh, SNHG1 /// SNORD22 /// SNORD25 /// SNORD26 /// SNORD27 /// SNORD28 /// SNORD29 /// SNORD31 / Fold change (Aza/veh), C12orf56 (ProbeSet 11735607_a_at) / Fold change (ACY-1035/veh), C12orf56 (ProbeSet 11735607_a_at) / Fold change (Aza/veh), FGFR1OP (ProbeSet 11751329_s_at) / Fold change (ACY-1035/veh), FGFR1OP (ProbeSet 11751329_s_at) / Fold change (Aza/veh), VPS36 (ProbeSet 11739960_a_at) / Fold change (ACY-1035/veh), VPS36 (ProbeSet 11739960_a_at) / RFU SYPL1 (11715823_x_at) / Fold change /veh SYPL1 (11715823_x_at) / RFU IGFBP7 (11715501_s_at) / Fold change /veh IGFBP7 (11715501_s_at) / RFU REEP3 (11722064_at) / Fold change /veh REEP3 (11722064_at) / RFU IGLL1 (11728026_x_at) / Fold change /veh IGLL1 (11728026_x_at): dose or concentration left out as unconfirmed", "conditions": "MV-4-11 cells, 48 hours"}
{"smiles": "Nc1ccc(-c2cccs2)cc1NC(=O)c1ccc2c(c1)cc(C1CC1)n2CCN1CCOCC1", "note": "[ACY-1035]", "values": [{"measurement": "Fold change /veh CCDC152 (11751479_a_at)", "result": 1.05}]}
